Marks after values point to notes of the source that are not given here.
Assays:
Type in all cases: in vivo
Mice = test: Peroral tolerance in mice; details: mouse, in vivo
Description: Set forth below is data obtained on the compounds of Examples 17, 19 and 20 that illustrates the pharmacological action of the compounds of the present invention.

anesthetized rat = test: Lypressin-induced T-wave increase in the ECG (lypressin coronary spasm), method of M. Leitold et al.
Description: (§1) In particular, they have a pronounced cardiovascular action. On isolated strips of veins from dogs, they act against the K⁺-induced contraction in a lower concentration than on aorta strips. On isolated hearts from guinea pigs, they increase coronary flow as a function of the dose. On anesthetized rats, they prevent lypressin coronary spasm as a function of the dose and significiantly increase the survival rate of rats following acute cardiac infarction. On normotensive conscious dogs, they lower the systolic blood pressure for a period of 6-8 hours after oral administration. On artifically respirated anesthetized, thoraxotomized dogs, they reduce the mean arterial pressure, the left ventricular systolic pressure, the left ventricular end diastolic pressure and the pressure in the Arteria pulmonalis and reduce the peripheral vascular resistance. In contrast to the known organic nitrate esters, they also lead to a long-lasting reduction in the systolic blood pressure of spontaneously hypertensive rats. Such an action profile is not known for any of the substances of similar structure which have already been described.

rats = test: Survival rate after acute coronary ligature, method of I. Lepran et al.; details: 100.0 mg/kg orally 5 minutes before ligature
Description: as §1

anesthetized dogs = test: Cardiovascular actions following intra-venous administration, opened thorax and artificial respiration; details: opened thorax, artificial respiration
Description: as §1

COc1ccccc1N1CCN(CC(O)CO[C@H]2CO[C@H]3[C@@H]2OC[C@@H]3O[N+](=O)[O-])CC1 (some centres unmarked) [Example 20, 5-O-<3-[4-(2-Methoxyphenyl)-piprazinyl]-2-hydroxypropyl>-isoidide-2-nitrate]
tolerance (clinical symptoms, fatal consequences) (Mice): without clinical symptoms and without fatal consequences
ED50 (anesthetized rat; Rattus norvegicus, po, 0.5 h, perorally 30 minutes before the lypressin injection, dose column in mg/kg): 73.8 mg/kg
Duration of action at the ED50 dose (anesthetized rat; perorally at various times before the lypressin injection): 4 h
Number of rats surviving after an acute coronary ligature, 24 hours (rats; control 21/80): 14/20*
Number of rats surviving after an acute coronary ligature, 7 days (rats; control 21/80): 14/20*
Number of rats surviving after an acute coronary ligature, 60 minutes (rats; control 23/80): 14/20*
CO, Action of substance (anesthetized dogs; 30 µg/kg intra-venous): 0.81 ± 0.3 l/M
CO, Change (anesthetized dogs; 30 µg/kg intra-venous): 0.38 ± 0.1 l/M
CO, Duration of action (anesthetized dogs; 30 µg/kg intra-venous): 12 ± 6 min
HR (heart rate), Action of substance (anesthetized dogs; 30 µg/kg intra-venous): 192 ± 10 Bts/M
HR (heart rate), Change (anesthetized dogs; 30 µg/kg intra-venous): 2 ± 2 Bts/M
HR (heart rate), Duration of action (anesthetized dogs; 30 µg/kg intra-venous): 11 ± 4 min
LVEDP (left ventricular enddiastolic pressure), Action of substance (anesthetized dogs; 30 µg/kg intra-venous): 7.5 ± 1.2 mmHg
LVEDP (left ventricular enddiastolic pressure), Change (anesthetized dogs; 30 µg/kg intra-venous): 0.1 ± 0.2 mmHg
LVEDP (left ventricular enddiastolic pressure), Duration of action (anesthetized dogs; 30 µg/kg intra-venous): 9 ± 7 min
LVSP (left ventricular systolic blood pressure), Action of substance (anesthetized dogs; 30 µg/kg intra-venous): 116 ± 10 mmHg
LVSP (left ventricular systolic blood pressure), Change (anesthetized dogs; 30 µg/kg intra-venous): 22 ± 4 mmHg
LVSP (left ventricular systolic blood pressure), Duration of action (anesthetized dogs; 30 µg/kg intra-venous): 8 ± 3 min
MAP (mean arterial blood pressure), Action of substance (anesthetized dogs; 30 µg/kg intra-venous): 66 ± 3 mmHg
MAP (mean arterial blood pressure), Change (anesthetized dogs; 30 µg/kg intra-venous): 25 ± 5 mmHg
MAP (mean arterial blood pressure), Duration of action (anesthetized dogs; 30 µg/kg intra-venous): 15 ± 2 min
PAP, Action of substance (anesthetized dogs; 30 µg/kg intra-venous): 16.0 ± 1 mmHg
PAP, Change (anesthetized dogs; 30 µg/kg intra-venous): 0.4 ± 0.2 mmHg
PAP, Duration of action (anesthetized dogs; 30 µg/kg intra-venous): 11 ± 6 min
SV, Action of substance (anesthetized dogs; 30 µg/kg intra-venous): 7.5 ± 2 mL/s
SV, Change (anesthetized dogs; 30 µg/kg intra-venous): 2.3 ± 1 mL/s
SV, Duration of action (anesthetized dogs; 30 µg/kg intra-venous): 12 ± 6 min
TPR (total peripheral vascular resistance), Action of substance (anesthetized dogs; 30 µg/kg intra-venous): 63 ± 13 mmHg/ml
TPR (total peripheral vascular resistance), Change (anesthetized dogs; 30 µg/kg intra-venous): 2 ± 13 mmHg/ml
TPR (total peripheral vascular resistance), Duration of action (anesthetized dogs; 30 µg/kg intra-venous): 4 ± 2 min
dp/dtmax (maximum rate of increase in the left ventricular pressure), Action of substance (anesthetized dogs; 30 µg/kg intra-venous): 2321 ± 363 mmHg/s
dp/dtmax (maximum rate of increase in the left ventricular pressure), Change (anesthetized dogs; 30 µg/kg intra-venous): 758 ± 269 mmHg/s
dp/dtmax (maximum rate of increase in the left ventricular pressure), Duration of action (anesthetized dogs; 30 µg/kg intra-venous): 15 ± 4 min
CO, Action of substance (anesthetized dogs; 300 µg/kg intra-venous): 1.32 ± 0.7 l/M
CO, Change (anesthetized dogs; 300 µg/kg intra-venous): 0.21 ± 0.6 l/M
CO, Duration of action (anesthetized dogs; 300 µg/kg intra-venous): 35 ± 23 min
HR (heart rate), Action of substance (anesthetized dogs; 300 µg/kg intra-venous): 197 ± 12 Bts/M
LVEDP (left ventricular enddiastolic pressure), Action of substance (anesthetized dogs; 300 µg/kg intra-venous): 6.8 ± 1 mmHg
LVEDP (left ventricular enddiastolic pressure), Change (anesthetized dogs; 300 µg/kg intra-venous): 1.1 ± 1 mmHg
LVEDP (left ventricular enddiastolic pressure), Duration of action (anesthetized dogs; 300 µg/kg intra-venous): 18 ± 13 min
LVSP (left ventricular systolic blood pressure), Action of substance (anesthetized dogs; 300 µg/kg intra-venous): 111 ± 11 mmHg
LVSP (left ventricular systolic blood pressure), Change (anesthetized dogs; 300 µg/kg intra-venous): 34 ± 5 mmHg
LVSP (left ventricular systolic blood pressure), Duration of action (anesthetized dogs; 300 µg/kg intra-venous): 34 ± 12 min
MAP (mean arterial blood pressure), Action of substance (anesthetized dogs; 300 µg/kg intra-venous): 58 ± 2 mmHg
MAP (mean arterial blood pressure), Change (anesthetized dogs; 300 µg/kg intra-venous): 39 ± 3 mmHg
MAP (mean arterial blood pressure), Duration of action (anesthetized dogs; 300 µg/kg intra-venous): 35 ± 15 min
PAP, Action of substance (anesthetized dogs; 300 µg/kg intra-venous): 15.7 ± 1 mmHg
